Laboratory results taken from ChEMBL document CHEMBL3351986, “Probing linker design in citric acid-ciprofloxacin conjugates” (2014).
≈ marks a conversion by molar mass, not a printed value. Calls of active or inactive are those of the source. No cut-off for these calls is given here.

System: Burkholderia cepacia
Assay: Antimicrobial activity against Burkholderia cepacia BIG 9 NCTC 10744 after 18 hrs by micro dilution method
Format: functional
Conditions: BIG 9 NCTC 10744, 18 h

MIC [µg/mL] | Compound
32 (≈ 52.9 µM) | O=C(O)CC(O)(CC(=O)NCCCCC(=O)N1CCN(c2cc3c(cc2F)c(=O)c(C(=O)O)cn3C2CC2)CC1)C(=O)O (racemic)

System: Pseudomonas aeruginosa
Assay: Antimicrobial activity against Pseudomonas aeruginosa BIG 63 after 18 hrs by micro dilution method
Format: functional
Conditions: BIG 63, 18 h

MIC [µg/mL] | Compound
16 (≈ 26.5 µM) | O=C(O)CC(O)(CC(=O)NCCCCC(=O)N1CCN(c2cc3c(cc2F)c(=O)c(C(=O)O)cn3C2CC2)CC1)C(=O)O (racemic)

System: Escherichia coli
Assay: Antimicrobial activity against Escherichia coli BIG 0046 after 18 hrs by micro dilution method
Format: functional
Conditions: BIG 0046, 18 h

MIC [µg/mL] | Compound
> 36 | O=C(O)CC(O)(CC(=O)NCCCCC(=O)N1CCN(c2cc3c(cc2F)c(=O)c(C(=O)O)cn3C2CC2)CC1)C(=O)O (racemic)

System: Staphylococcus epidermidis
Assay: Antimicrobial activity against Staphylococcus epidermidis NCTC 11047 after 18 hrs by micro dilution method
Format: functional
Conditions: NCTC 11047, 18 h

MIC [µg/mL] | Compound
> 36 | O=C(O)CC(O)(CC(=O)NCCCCC(=O)N1CCN(c2cc3c(cc2F)c(=O)c(C(=O)O)cn3C2CC2)CC1)C(=O)O (racemic)

System: Staphylococcus aureus
Assay: Antimicrobial activity against Staphylococcus aureus NCTC 13142 after 18 hrs by micro dilution method
Format: functional
Conditions: NCTC 13142, 18 h

MIC [µg/mL] | Compound
> 36 | O=C(O)CC(O)(CC(=O)NCCCCC(=O)N1CCN(c2cc3c(cc2F)c(=O)c(C(=O)O)cn3C2CC2)CC1)C(=O)O (racemic)

System: Stenotrophomonas maltophilia
Assay: Antimicrobial activity against Stenotrophomonas maltophilia N1124 after 18 hrs by micro dilution method
Format: functional
Conditions: N1124, 18 h

MIC [µg/mL] | Compound
> 36 | O=C(O)CC(O)(CC(=O)NCCCCC(=O)N1CCN(c2cc3c(cc2F)c(=O)c(C(=O)O)cn3C2CC2)CC1)C(=O)O (racemic)

System: Burkholderia cepacia
Assay: Antimicrobial activity against Burkholderia cepacia BIG 121 after 18 hrs by micro dilution method
Format: functional
Conditions: BIG 121, 18 h

MIC [µg/mL] | Compound
> 36 | O=C(O)CC(O)(CC(=O)NCCCCC(=O)N1CCN(c2cc3c(cc2F)c(=O)c(C(=O)O)cn3C2CC2)CC1)C(=O)O (racemic)

System: Pseudomonas aeruginosa
Assay: Antimicrobial activity against Pseudomonas aeruginosa BIG 37 clinical isolate after 18 hrs by micro dilution method
Format: functional
Conditions: BIG 37, 18 h

MIC [µg/mL] | Compound
> 36 | O=C(O)CC(O)(CC(=O)NCCCCC(=O)N1CCN(c2cc3c(cc2F)c(=O)c(C(=O)O)cn3C2CC2)CC1)C(=O)O (racemic)

System: Staphylococcus aureus
Assay: Antimicrobial activity against Staphylococcus aureus HG-1 after 18 hrs by micro dilution method
Format: functional
Conditions: HG-1, 18 h

MIC [µg/mL] | Compound
> 36 | O=C(O)CC(O)(CC(=O)NCCCCC(=O)N1CCN(c2cc3c(cc2F)c(=O)c(C(=O)O)cn3C2CC2)CC1)C(=O)O (racemic)

System: Staphylococcus aureus
Assay: Antimicrobial activity against Staphylococcus aureus BIG 52 after 18 hrs by micro dilution method
Format: functional
Conditions: BIG 52, 18 h

MIC [µg/mL] | Compound
> 36 | O=C(O)CC(O)(CC(=O)NCCCCC(=O)N1CCN(c2cc3c(cc2F)c(=O)c(C(=O)O)cn3C2CC2)CC1)C(=O)O (racemic)

System: Burkholderia cepacia
Assay: Ratio of compound MIC to ciprofloxacin MIC for Burkholderia cepacia BIG 9 NCTC 10744 after 18 hrs by micro dilution method
Format: functional
Conditions: not given

Compound | Ratio
O=C(O)CC(O)(CC(=O)NCCCCC(=O)N1CCN(c2cc3c(cc2F)c(=O)c(C(=O)O)cn3C2CC2)CC1)C(=O)O (racemic) | 35

System: Burkholderia cepacia
Assay: Antimicrobial activity against Burkholderia cepacia BIG 119 after 18 hrs by micro dilution method
Format: functional
Conditions: BIG 119, 18 h

MIC [µg/mL] | Compound
> 36 | O=C(O)CC(O)(CC(=O)NCCCCC(=O)N1CCN(c2cc3c(cc2F)c(=O)c(C(=O)O)cn3C2CC2)CC1)C(=O)O (racemic)

System: Staphylococcus aureus
Assay: Antimicrobial activity against Staphylococcus aureus NCTC 13143 after 18 hrs by micro dilution method
Format: functional
Conditions: NCTC 13143, 18 h

MIC [µg/mL] | Compound
> 36 | O=C(O)CC(O)(CC(=O)NCCCCC(=O)N1CCN(c2cc3c(cc2F)c(=O)c(C(=O)O)cn3C2CC2)CC1)C(=O)O (racemic)

System: Pseudomonas aeruginosa
Assay: Antimicrobial activity against Pseudomonas aeruginosa NCTC 10662 after 18 hrs by micro dilution method
Format: functional
Conditions: NCTC 10662, 18 h

MIC [µg/mL] | Compound
16 (≈ 26.5 µM) | O=C(O)CC(O)(CC(=O)NCCCCC(=O)N1CCN(c2cc3c(cc2F)c(=O)c(C(=O)O)cn3C2CC2)CC1)C(=O)O (racemic)

System: Escherichia coli
Assay: Ratio of compound MIC to ciprofloxacin MIC for Escherichia coli NCTC 10418 after 18 hrs by micro dilution method
Format: functional
Conditions: not given

Compound | Ratio
O=C(O)CC(O)(CC(=O)NCCCCC(=O)N1CCN(c2cc3c(cc2F)c(=O)c(C(=O)O)cn3C2CC2)CC1)C(=O)O (racemic) | 8.8

System: Burkholderia cepacia
Assay: Antimicrobial activity against Burkholderia cepacia BIG 117 after 18 hrs by micro dilution method
Format: functional
Conditions: BIG 117, 18 h

MIC [µg/mL] | Compound
> 36 | O=C(O)CC(O)(CC(=O)NCCCCC(=O)N1CCN(c2cc3c(cc2F)c(=O)c(C(=O)O)cn3C2CC2)CC1)C(=O)O (racemic)

System: Stenotrophomonas maltophilia
Assay: Antimicrobial activity against Stenotrophomonas maltophilia N1127 after 18 hrs by micro dilution method
Format: functional
Conditions: N1127, 18 h

MIC [µg/mL] | Compound
> 36 | O=C(O)CC(O)(CC(=O)NCCCCC(=O)N1CCN(c2cc3c(cc2F)c(=O)c(C(=O)O)cn3C2CC2)CC1)C(=O)O (racemic)

System: Staphylococcus epidermidis
Assay: Ratio of compound MIC to ciprofloxacin MIC for Staphylococcus epidermidis NCTC 2749 after 18 hrs by micro dilution method
Format: functional
Conditions: not given

Compound | Ratio
O=C(O)CC(O)(CC(=O)NCCCCC(=O)N1CCN(c2cc3c(cc2F)c(=O)c(C(=O)O)cn3C2CC2)CC1)C(=O)O (racemic) | 70

System: Pseudomonas aeruginosa
Assay: Ratio of compound MIC to ciprofloxacin MIC for Pseudomonas aeruginosa NCTC 10662 after 18 hrs by micro dilution method
Format: functional
Conditions: not given

Compound | Ratio
O=C(O)CC(O)(CC(=O)NCCCCC(=O)N1CCN(c2cc3c(cc2F)c(=O)c(C(=O)O)cn3C2CC2)CC1)C(=O)O (racemic) | 35

System: Stenotrophomonas maltophilia
Assay: Antimicrobial activity against Stenotrophomonas maltophilia N1119 after 18 hrs by micro dilution method
Format: functional
Conditions: N1119, 18 h

MIC [µg/mL] | Compound
> 36 | O=C(O)CC(O)(CC(=O)NCCCCC(=O)N1CCN(c2cc3c(cc2F)c(=O)c(C(=O)O)cn3C2CC2)CC1)C(=O)O (racemic)

System: Pseudomonas aeruginosa
Assay: Ratio of compound MIC to ciprofloxacin MIC for Pseudomonas aeruginosa BIG 63 after 18 hrs by micro dilution method
Format: functional
Conditions: not given

Compound | Ratio
O=C(O)CC(O)(CC(=O)NCCCCC(=O)N1CCN(c2cc3c(cc2F)c(=O)c(C(=O)O)cn3C2CC2)CC1)C(=O)O (racemic) | 35

System: Staphylococcus epidermidis
Assay: Antimicrobial activity against Staphylococcus epidermidis NCTC 2749 after 18 hrs by micro dilution method
Format: functional
Conditions: NCTC 2749, 18 h

MIC [µg/mL] | Compound
32 (≈ 52.9 µM) | O=C(O)CC(O)(CC(=O)NCCCCC(=O)N1CCN(c2cc3c(cc2F)c(=O)c(C(=O)O)cn3C2CC2)CC1)C(=O)O (racemic)

System: Pseudomonas aeruginosa
Assay: Antimicrobial activity against Pseudomonas aeruginosa environmental isolate BIG 39 after 18 hrs by micro dilution method
Format: functional
Conditions: BIG 39, 18 h

MIC [µg/mL] | Compound
16 (≈ 26.5 µM) | O=C(O)CC(O)(CC(=O)NCCCCC(=O)N1CCN(c2cc3c(cc2F)c(=O)c(C(=O)O)cn3C2CC2)CC1)C(=O)O (racemic)

System: Serratia marcescens
Assay: Antimicrobial activity against Serratia marcescens BIG 11 NCTC 1377 after 18 hrs by micro dilution method
Format: functional
Conditions: BIG 11 NCTC 1377, 18 h

MIC [µg/mL] | Compound
4 (≈ 6.62 µM) | O=C(O)CC(O)(CC(=O)NCCCCC(=O)N1CCN(c2cc3c(cc2F)c(=O)c(C(=O)O)cn3C2CC2)CC1)C(=O)O (racemic)

System: Escherichia coli
Assay: Antimicrobial activity against Escherichia coli NCTC 10418 after 18 hrs by micro dilution method
Format: functional
Conditions: NCTC 10418, 18 h

MIC [µg/mL] | Compound
1 (≈ 1.65 µM) | O=C(O)CC(O)(CC(=O)NCCCCC(=O)N1CCN(c2cc3c(cc2F)c(=O)c(C(=O)O)cn3C2CC2)CC1)C(=O)O (racemic)

System: not listed separately
Assay: Inhibition of DNA gyrase (unknown origin) assessed as reduction in supercoiled form of DNA at 20 uM using ethidium bromide staining by gel electrophoresis
Conditions: not given

inhibition | Compound
Active | O=C(O)CC(O)(CC(=O)NCCCCC(=O)N1CCN(c2cc3c(cc2F)c(=O)c(C(=O)O)cn3C2CC2)CC1)C(=O)O (racemic)

System: Pseudomonas aeruginosa
Assay: Ratio of compound MIC to ciprofloxacin MIC for Pseudomonas aeruginosa environmental isolate after 18 hrs by micro dilution method
Format: functional
Conditions: not given

Compound | Ratio
O=C(O)CC(O)(CC(=O)NCCCCC(=O)N1CCN(c2cc3c(cc2F)c(=O)c(C(=O)O)cn3C2CC2)CC1)C(=O)O (racemic) | 35

System: Staphylococcus haemolyticus
Assay: Antimicrobial activity against Staphylococcus haemolyticus NCTC 11042 after 18 hrs by micro dilution method
Format: functional
Conditions: NCTC 11042, 18 h

Compound | MIC [µg/mL]
O=C(O)CC(O)(CC(=O)NCCCCC(=O)N1CCN(c2cc3c(cc2F)c(=O)c(C(=O)O)cn3C2CC2)CC1)C(=O)O (racemic) | > 36

System: Serratia marcescens
Assay: Ratio of compound MIC to ciprofloxacin MIC for Serratia marcescens BIG 11 NCTC 1377 after 18 hrs by micro dilution method
Format: functional
Conditions: not given

Compound | Ratio
O=C(O)CC(O)(CC(=O)NCCCCC(=O)N1CCN(c2cc3c(cc2F)c(=O)c(C(=O)O)cn3C2CC2)CC1)C(=O)O (racemic) | 36.5

System: Burkholderia cepacia
Assay: Antimicrobial activity against Burkholderia cepacia BIG 118 after 18 hrs by micro dilution method
Format: functional
Conditions: BIG 118, 18 h

MIC [µg/mL] | Compound
> 36 | O=C(O)CC(O)(CC(=O)NCCCCC(=O)N1CCN(c2cc3c(cc2F)c(=O)c(C(=O)O)cn3C2CC2)CC1)C(=O)O (racemic)

System: Staphylococcus aureus
Assay: Antimicrobial activity against Staphylococcus aureus (Oxford) NCTC 6571 after 18 hrs by micro dilution method
Format: functional
Conditions: (Oxford) NCTC 6571, 18 h

MIC [µg/mL] | Compound
> 36 | O=C(O)CC(O)(CC(=O)NCCCCC(=O)N1CCN(c2cc3c(cc2F)c(=O)c(C(=O)O)cn3C2CC2)CC1)C(=O)O (racemic)

System: Burkholderia cepacia
Assay: Antimicrobial activity against Burkholderia cepacia BIG 120 after 18 hrs by micro dilution method
Format: functional
Conditions: BIG 120, 18 h

MIC [µg/mL] | Compound
> 36 | O=C(O)CC(O)(CC(=O)NCCCCC(=O)N1CCN(c2cc3c(cc2F)c(=O)c(C(=O)O)cn3C2CC2)CC1)C(=O)O (racemic)
